Assay results: PubChem BioAssay AID2060896 (Molecular Pharmacology Branch, DTP, NCI, 2025)

Tested on: 941728-121-R-J1-PDC complex spheroid viability
Assay: Anticancer human tumor 941728-121-R-J1-PDC patient-derived lung adenocarcinoma cell line growth inhibition [RAS]
Details: for IC50: curve of first compound; for viability, T/C: stronger effect = lower value
How it was run: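 Agents were tested in combination matrices in half-log decrements from a top concentration at or near clinical Cmax (10 microM if undetermined). Targets were multi-cell spheroids of tumour lines plus HUVEC and MSC stromal cells.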

[1] = second compound 0.00316 µM, first compound 0.0316 µM
[2] = second compound 0.00316 µM, first compound 0.1 µM
[3] = second compound 0.00316 µM, first compound 0.316 µM
[4] = second compound 0.00316 µM, first compound 1 µM
[5] = second compound 0.00316 µM, first compound 3.16 µM
[6] = second compound 0.00316 µM, first compound 10 µM
[7] = second compound 0.01 µM, first compound 0.0316 µM
[8] = second compound 0.01 µM, first compound 0.1 µM
[9] = second compound 0.01 µM, first compound 0.316 µM
[10] = second compound 0.01 µM, first compound 1 µM
[11] = second compound 0.01 µM, first compound 3.16 µM
[12] = second compound 0.01 µM, first compound 10 µM
[13] = second compound 0.0316 µM, first compound 0.0316 µM
[14] = second compound 0.0316 µM, first compound 0.1 µM
[15] = second compound 0.0316 µM, first compound 0.316 µM
[16] = second compound 0.0316 µM, first compound 1 µM
[17] = second compound 0.0316 µM, first compound 3.16 µM
[18] = second compound 0.0316 µM, first compound 10 µM
[19] = second compound 0.1 µM, first compound 0.0316 µM
[20] = second compound 0.1 µM, first compound 0.1 µM
[21] = second compound 0.1 µM, first compound 0.316 µM
[22] = second compound 0.1 µM, first compound 1 µM
[23] = second compound 0.1 µM, first compound 3.16 µM
[24] = second compound 0.1 µM, first compound 10 µM
[25] = second compound 0.316 µM, first compound 0.0316 µM
[26] = second compound 0.316 µM, first compound 0.1 µM
[27] = second compound 0.316 µM, first compound 0.316 µM
[28] = second compound 0.316 µM, first compound 1 µM
[29] = second compound 0.316 µM, first compound 3.16 µM
[30] = second compound 0.316 µM, first compound 10 µM
[31] = second compound 1 µM, first compound 0.0316 µM
[32] = second compound 1 µM, first compound 0.1 µM
[33] = second compound 1 µM, first compound 0.316 µM
[34] = second compound 1 µM, first compound 1 µM
[35] = second compound 1 µM, first compound 3.16 µM
[36] = second compound 1 µM, first compound 10 µM
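Further: spheroids exposed to compounds for 7 days before readout.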
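Wherever viability, T/C is given: 100% = DMSO vehicle control viability.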

`CC1(O)CCCC1n1c(=O)c(C(F)F)cc2cnc(NC3CCN(S(C)(=O)=O)CC3)nc21` (centres undefined) + C=CC(=O)N1CCN(c2nc(OCC3CCCN3C)nc3c(F)c(-c4nc(N)cc(C)c4C(F)(F)F)c(Cl)cc23)C(C)C1 was tested. Which IC50 (second compound 0.00316 µM) did it give?
The IC50 was under 31.6 nM.

And the IC50 (second compound 0.01 µM)?
The IC50 was under 31.6 nM.

What about the IC50 (second compound 0.0316 µM) of the same compound?
Its IC50 is under 31.6 nM.

What about the IC50 (second compound 0.1 µM) of the same compound?
The IC50 was under 31.6 nM.

And the IC50 (second compound 0.316 µM)?
Its IC50 is under 31.6 nM.

And the IC50 (second compound 1 µM)?
Its IC50 is under 31.6 nM.

What about the viability, T/C [1] of the same compound?
Its viability, T/C is 21.1%.

What about the viability, T/C [2] of the same compound?
The viability, T/C was 22.3%.

What about the viability, T/C [3] of the same compound?
Its viability, T/C is 21.8%.

And the viability, T/C [4]?
The viability, T/C was 24.1%.

And the viability, T/C [5]?
The viability, T/C was 21.9%.

What about the viability, T/C [6] of the same compound?
Its viability, T/C is 23.6%.

What about the viability, T/C [7] of the same compound?
Its viability, T/C is 18.8%.

What about the viability, T/C [8] of the same compound?
The viability, T/C was 25.2%.

And the viability, T/C [9]?
Its viability, T/C is 19.6%.

And the viability, T/C [10]?
The viability, T/C was 21.8%.

What about the viability, T/C [11] of the same compound?
The viability, T/C was 23%.

And the viability, T/C [12]?
The viability, T/C was 26.5%.

And the viability, T/C [13]?
Its viability, T/C is 18%.

And the viability, T/C [14]?
Its viability, T/C is 17.9%.

What about the viability, T/C [15] of the same compound?
The viability, T/C was 21.4%.

What about the viability, T/C [16] of the same compound?
Its viability, T/C is 19.1%.

What about the viability, T/C [17] of the same compound?
Its viability, T/C is 20.3%.

And the viability, T/C [18]?
The viability, T/C was 23.1%.

And the viability, T/C [19]?
Its viability, T/C is 20.1%.

What about the viability, T/C [20] of the same compound?
The viability, T/C was 18.7%.

What about the viability, T/C [21] of the same compound?
Its viability, T/C is 20.1%.

What about the viability, T/C [22] of the same compound?
The viability, T/C was 22.8%.

And the viability, T/C [23]?
The viability, T/C was 21.8%.

What about the viability, T/C [24] of the same compound?
Its viability, T/C is 24.6%.

What about the viability, T/C [25] of the same compound?
The viability, T/C was 21.1%.

What about the viability, T/C [26] of the same compound?
The viability, T/C was 19.9%.

And the viability, T/C [27]?
Its viability, T/C is 21.4%.

And the viability, T/C [28]?
Its viability, T/C is 22.1%.

What about the viability, T/C [29] of the same compound?
Its viability, T/C is 21.6%.

And the viability, T/C [30]?
Its viability, T/C is 28.1%.

And the viability, T/C [31]?
Its viability, T/C is 21.1%.

What about the viability, T/C [32] of the same compound?
The viability, T/C was 19.7%.

What about the viability, T/C [33] of the same compound?
Its viability, T/C is 26.4%.

And the viability, T/C [34]?
Its viability, T/C is 21.9%.

And the viability, T/C [35]?
Its viability, T/C is 24.1%.

And the viability, T/C [36]?
Its viability, T/C is 33.4%.

`CCC(CC)c1cc(NC2CCC(N)C2)n2nccc2n1` (centres undefined) + C=CC(=O)N1CCN(c2nc(OCC3CCCN3C)nc3c(F)c(-c4nc(N)cc(C)c4C(F)(F)F)c(Cl)cc23)C(C)C1 was tested. Which IC50 (second compound 0.00316 µM) did it give?
Its IC50 is under 31.6 nM.

What about the IC50 (second compound 0.01 µM) of the same compound?
The IC50 was under 31.6 nM.

What about the IC50 (second compound 0.0316 µM) of the same compound?
The IC50 was under 31.6 nM.

What about the IC50 (second compound 0.1 µM) of the same compound?
Its IC50 is under 31.6 nM.

And the IC50 (second compound 0.316 µM)?
The IC50 was under 31.6 nM.

And the IC50 (second compound 1 µM)?
The IC50 was under 31.6 nM.

What about the viability, T/C [1] of the same compound?
The viability, T/C was 19.6%.

And the viability, T/C [2]?
Its viability, T/C is 18.1%.

What about the viability, T/C [3] of the same compound?
The viability, T/C was 20.3%.

What about the viability, T/C [4] of the same compound?
The viability, T/C was 27.2%.

What about the viability, T/C [5] of the same compound?
Its viability, T/C is 13.7%.

What about the viability, T/C [6] of the same compound?
The viability, T/C was 29.1%.

And the viability, T/C [7]?
The viability, T/C was 20.1%.

And the viability, T/C [8]?
Its viability, T/C is 19.9%.

What about the viability, T/C [9] of the same compound?
Its viability, T/C is 21.8%.

What about the viability, T/C [10] of the same compound?
Its viability, T/C is 28.4%.

What about the viability, T/C [11] of the same compound?
The viability, T/C was 13.3%.

What about the viability, T/C [12] of the same compound?
The viability, T/C was 25%.

And the viability, T/C [13]?
Its viability, T/C is 20%.

What about the viability, T/C [14] of the same compound?
Its viability, T/C is 24.5%.

And the viability, T/C [15]?
The viability, T/C was 23.5%.

What about the viability, T/C [16] of the same compound?
The viability, T/C was 27.3%.

What about the viability, T/C [17] of the same compound?
The viability, T/C was 13.7%.

And the viability, T/C [18]?
Its viability, T/C is 25.9%.

And the viability, T/C [19]?
The viability, T/C was 19.7%.

And the viability, T/C [20]?
Its viability, T/C is 18.3%.

What about the viability, T/C [21] of the same compound?
The viability, T/C was 23.4%.

What about the viability, T/C [22] of the same compound?
The viability, T/C was 27.3%.

What about the viability, T/C [23] of the same compound?
Its viability, T/C is 16.6%.

And the viability, T/C [24]?
The viability, T/C was 25.9%.

And the viability, T/C [25]?
Its viability, T/C is 19.1%.

And the viability, T/C [26]?
Its viability, T/C is 21.6%.

And the viability, T/C [27]?
Its viability, T/C is 21.5%.

And the viability, T/C [28]?
Its viability, T/C is 26%.

What about the viability, T/C [29] of the same compound?
Its viability, T/C is 14.9%.

What about the viability, T/C [30] of the same compound?
Its viability, T/C is 26.1%.

What about the viability, T/C [31] of the same compound?
Its viability, T/C is 20.6%.

What about the viability, T/C [32] of the same compound?
Its viability, T/C is 21.2%.

And the viability, T/C [33]?
The viability, T/C was 22.6%.

And the viability, T/C [34]?
The viability, T/C was 30.2%.

What about the viability, T/C [35] of the same compound?
Its viability, T/C is 16.8%.

And the viability, T/C [36]?
The viability, T/C was 32.5%.
